The text below walks through data of patent publication US9499535B2, “Kinase inhibitors” (ORIGENIS GMBH, priority 2011, dated 2016).

A value given as a limit tells only on which side of the number the result lay.

For experiment [1], the target named is T1, SYK kinase (Homo sapiens, UniProt P43405).
T1 construct: purchased Invitrogen, Carlsbad
Description: SYK assay (OMNIA Kinase Assay, Invitrogen). It counts as biochemical. As to conditions: apparent Ki calculated from the IC50 using the Cheng-Prusoff equation; 1 mM ATP, 10 μM Peptide Substrate; read-out: SYK Activities: Ki. The gist of the method:
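Continuous SOX-fluorescence (Omnia) readout of Tyr 7 peptide (10 μM) phosphorylation with 1 mM ATP and 0.2 mM DTT at 30° C, started by SYK addition. Fluorescence (λex 360/λem 485 nm) was read every 30 s for 30 min. IC50 from velocity vs concentration; apparent Ki via Cheng-Prusoff.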

Experiment [2] concerns the target LRRK2 (Homo sapiens, UniProt Q5S007). Description: LRRK2 assay (LanthaScreen Eu Kinase Binding Assay). As to conditions: 5 nM LRRK2, 10 nM tracer 236, RT 1 h; read-out: LRRK2 Activites: IC50. The gist of the method: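 Kinase binding was detected by europium anti-tag antibody FRET with a competing tracer, so inhibitor binding lowers the FRET signal. IC50 came from a variable-slope sigmoidal fit of emission ratio against inhibitor concentration.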
For orientation: Time-resolved FRET reads energy transfer from a long-lived donor to a nearby acceptor.

Experiment [3] has as its target MYLK (Homo sapiens, UniProt Q15746). Put plainly: MYLK assay (LanthaScreen Eu Kinase Binding Assay). The note with it: 5 nM MYLK, 30 nM tracer 236, RT 1 h; read-out: MYLK Activites: IC50. A digest of the protocol:
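TR-FRET tracer-displacement binding: 5 nM MYLK with 2 nM Eu-anti-GST antibody and 30 nM tracer 236 in kinase buffer A, 1 h at RT. The 665/615 nm emission ratio was plotted against inhibitor concentration; IC50 from variable-slope sigmoidal fit.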

Chain of LRRK2 (Q5S007 970-2527 limits assumed): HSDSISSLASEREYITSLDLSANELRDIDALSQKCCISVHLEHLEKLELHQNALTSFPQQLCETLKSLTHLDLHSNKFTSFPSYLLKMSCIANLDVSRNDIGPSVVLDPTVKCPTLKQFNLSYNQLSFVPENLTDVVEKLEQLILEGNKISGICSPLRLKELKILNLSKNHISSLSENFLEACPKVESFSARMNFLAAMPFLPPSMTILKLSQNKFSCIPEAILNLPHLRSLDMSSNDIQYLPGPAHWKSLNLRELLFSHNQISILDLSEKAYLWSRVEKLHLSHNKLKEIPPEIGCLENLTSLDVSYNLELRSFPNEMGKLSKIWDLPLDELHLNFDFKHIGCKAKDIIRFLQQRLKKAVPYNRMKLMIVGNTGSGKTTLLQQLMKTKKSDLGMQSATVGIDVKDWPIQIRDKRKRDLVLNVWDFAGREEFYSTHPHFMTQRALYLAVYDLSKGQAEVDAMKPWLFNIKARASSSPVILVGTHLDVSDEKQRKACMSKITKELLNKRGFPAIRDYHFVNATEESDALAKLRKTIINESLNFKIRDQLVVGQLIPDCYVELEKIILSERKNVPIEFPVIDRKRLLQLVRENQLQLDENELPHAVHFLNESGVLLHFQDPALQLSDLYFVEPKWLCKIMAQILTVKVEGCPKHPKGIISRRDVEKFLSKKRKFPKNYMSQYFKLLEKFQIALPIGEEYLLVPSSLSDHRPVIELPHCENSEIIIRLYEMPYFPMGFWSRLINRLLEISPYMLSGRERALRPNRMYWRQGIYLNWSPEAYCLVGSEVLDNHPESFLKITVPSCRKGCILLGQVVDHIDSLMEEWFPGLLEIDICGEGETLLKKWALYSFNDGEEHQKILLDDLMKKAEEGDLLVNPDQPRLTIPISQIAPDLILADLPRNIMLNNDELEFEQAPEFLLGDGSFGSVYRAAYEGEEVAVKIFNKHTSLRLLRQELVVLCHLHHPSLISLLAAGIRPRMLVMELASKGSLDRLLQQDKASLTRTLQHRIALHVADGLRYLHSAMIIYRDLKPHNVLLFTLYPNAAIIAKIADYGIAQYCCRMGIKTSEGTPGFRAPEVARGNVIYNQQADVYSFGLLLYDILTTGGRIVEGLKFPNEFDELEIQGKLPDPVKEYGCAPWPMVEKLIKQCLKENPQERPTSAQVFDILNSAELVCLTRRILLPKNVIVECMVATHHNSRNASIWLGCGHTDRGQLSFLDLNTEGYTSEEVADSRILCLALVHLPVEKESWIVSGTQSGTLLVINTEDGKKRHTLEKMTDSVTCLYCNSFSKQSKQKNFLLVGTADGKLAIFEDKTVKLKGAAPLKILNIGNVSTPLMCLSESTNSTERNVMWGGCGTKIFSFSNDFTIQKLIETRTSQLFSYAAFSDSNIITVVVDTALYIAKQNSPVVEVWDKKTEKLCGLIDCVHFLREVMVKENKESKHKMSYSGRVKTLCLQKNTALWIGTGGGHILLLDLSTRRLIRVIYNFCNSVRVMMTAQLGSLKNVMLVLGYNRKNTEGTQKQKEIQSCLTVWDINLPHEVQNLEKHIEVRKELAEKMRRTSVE
Chain of MYLK (Q15746 whole entry): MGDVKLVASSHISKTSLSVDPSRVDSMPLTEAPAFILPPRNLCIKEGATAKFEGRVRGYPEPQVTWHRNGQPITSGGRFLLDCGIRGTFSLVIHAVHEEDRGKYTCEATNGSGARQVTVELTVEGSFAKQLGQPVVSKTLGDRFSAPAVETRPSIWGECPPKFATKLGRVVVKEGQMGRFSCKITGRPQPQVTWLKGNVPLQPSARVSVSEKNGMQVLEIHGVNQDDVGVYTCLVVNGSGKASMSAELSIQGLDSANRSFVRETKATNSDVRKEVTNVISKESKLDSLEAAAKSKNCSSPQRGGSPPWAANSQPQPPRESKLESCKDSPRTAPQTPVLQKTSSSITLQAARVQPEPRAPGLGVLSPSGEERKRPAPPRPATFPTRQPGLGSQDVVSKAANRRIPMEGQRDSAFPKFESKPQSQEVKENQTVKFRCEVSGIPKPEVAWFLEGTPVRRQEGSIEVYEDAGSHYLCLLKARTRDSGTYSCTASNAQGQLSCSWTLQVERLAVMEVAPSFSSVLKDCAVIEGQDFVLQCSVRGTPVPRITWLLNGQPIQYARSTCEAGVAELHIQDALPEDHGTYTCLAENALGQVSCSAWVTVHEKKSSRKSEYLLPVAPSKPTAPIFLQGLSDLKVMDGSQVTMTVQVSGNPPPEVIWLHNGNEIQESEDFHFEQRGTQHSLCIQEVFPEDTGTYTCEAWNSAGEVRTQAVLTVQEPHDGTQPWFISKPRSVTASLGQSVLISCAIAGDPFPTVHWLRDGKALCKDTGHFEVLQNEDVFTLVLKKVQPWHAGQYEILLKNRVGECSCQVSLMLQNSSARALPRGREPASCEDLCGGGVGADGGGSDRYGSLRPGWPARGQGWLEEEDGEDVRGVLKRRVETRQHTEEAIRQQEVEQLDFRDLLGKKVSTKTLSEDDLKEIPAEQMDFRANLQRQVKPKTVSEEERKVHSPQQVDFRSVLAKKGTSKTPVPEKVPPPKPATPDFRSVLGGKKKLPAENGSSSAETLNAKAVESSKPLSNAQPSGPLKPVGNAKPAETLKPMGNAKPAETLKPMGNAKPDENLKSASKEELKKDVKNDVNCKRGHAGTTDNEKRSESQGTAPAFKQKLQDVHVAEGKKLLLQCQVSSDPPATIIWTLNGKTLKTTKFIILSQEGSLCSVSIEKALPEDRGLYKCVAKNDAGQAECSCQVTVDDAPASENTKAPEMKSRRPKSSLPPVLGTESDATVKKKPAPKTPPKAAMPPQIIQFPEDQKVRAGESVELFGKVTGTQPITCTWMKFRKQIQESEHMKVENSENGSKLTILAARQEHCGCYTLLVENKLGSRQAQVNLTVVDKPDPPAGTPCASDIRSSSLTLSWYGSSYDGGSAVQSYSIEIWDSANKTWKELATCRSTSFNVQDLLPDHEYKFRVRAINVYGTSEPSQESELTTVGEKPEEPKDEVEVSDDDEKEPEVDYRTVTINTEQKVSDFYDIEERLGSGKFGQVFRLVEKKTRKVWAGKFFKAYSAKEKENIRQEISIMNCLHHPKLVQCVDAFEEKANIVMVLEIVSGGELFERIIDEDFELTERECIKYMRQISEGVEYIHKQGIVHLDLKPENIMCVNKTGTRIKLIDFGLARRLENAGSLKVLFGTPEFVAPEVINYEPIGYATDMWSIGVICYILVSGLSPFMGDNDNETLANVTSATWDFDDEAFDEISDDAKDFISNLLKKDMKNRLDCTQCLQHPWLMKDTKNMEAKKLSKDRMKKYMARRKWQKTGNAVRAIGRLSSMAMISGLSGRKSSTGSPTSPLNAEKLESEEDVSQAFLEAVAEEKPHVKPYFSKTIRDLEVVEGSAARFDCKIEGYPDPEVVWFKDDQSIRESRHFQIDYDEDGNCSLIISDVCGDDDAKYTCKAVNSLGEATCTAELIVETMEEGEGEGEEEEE

A word on the IC50: it is the point on the concentration scale where inhibition reaches its midpoint. With `COc1ccc2nc(Nc3ccc(N4CCN(CC(=O)O)CC4)cc3)c3n[nH]cc3c2c1` [Example #277, 2-(4-(4-((8-methoxy-2H-pyrazolo[3,4-c]quinolin-4-yl)amino)phenyl)piperazin-1-yl)acetic-acid], the Ki in experiment [1] is 10 to 100 nM. The IC50 is 10 to 100 nM in experiment [2] and below 5000 nM in experiment [3].

In the case of `COc1ccc2nc(Nc3ccc(CO)cc3)c3n[nH]cc3c2c1` [Example #280, (4-((8-methoxy-2H-pyrazolo[3,4-c]quinolin-4-yl)amino)phenyl)methanol], in experiment [1], the Ki is 10 to 100 nM. The IC50 in experiment [2] was 100 to 1000 nM; in experiment [3] it was below 5000 nM.

Regarding `COc1ccc2nc(Nc3ccc(N4CCN(CCN(C)C)CC4)cc3)c3n[nH]cc3c2c1` [Example #281, {4-[4-(2-Dimethylamino-ethyl)-piperazin-1-yl]-phenyl}-(8-methoxy-2H-pyrazolo[3,4-c]quinolin-4-yl)-amine], the Ki in experiment [1] was 10 to 100 nM. In addition, the IC50 is 10 to 100 nM in experiment [2] and below 5000 nM in experiment [3].

In the case of `COc1cc(OC)c2nc(Nc3ccc(CN4CCN(C)CC4)cc3)c3n[nH]cc3c2c1` [Example #282, (6,8-Dimethoxy-2H-pyrazolo[3,4-c]quinolin-4-yl)-[4-(4-methyl-piperazin-1-ylmethyl)-phenyl]-amine], the Ki in experiment [1] was 10 to 100 nM. Further, the IC50 in experiment [2] is 100 to 1000 nM; in experiment [3], below 5000 nM.

`COc1cc(OC)c2nc(Nc3ccc(C(=O)N4CCN(C)CC4)cc3)c3n[nH]cc3c2c1` [Example #283, (4-((6,8-dimethoxy-2H-pyrazolo[3,4-c]quinolin-4-yl)amino)phenyl)(4-methylpiperazin-1-yl)methanone]: the Ki in experiment [1] was 10 to 100 nM. In addition, the results for the IC50 in experiment [2] and in experiment [3] were 100 to 1000 nM and below 5000 nM, respectively.

Regarding `COc1cc(OC)c2nc(Nc3ccc(CN(C)C)cc3)c3n[nH]cc3c2c1` [Example #284, (6,8-Dimethoxy-2H-pyrazolo[3,4-c]quinolin-4-yl)-(4-dimethylaminomethyl-phenyl)-amine], the Ki in experiment [1] was 10 to 100 nM. The IC50 was 100 to 1000 nM in experiment [2] and below 5000 nM in experiment [3].

Take `COc1ccc2nc(Nc3ccc4cc(C(=O)O)ccc4c3)c3n[nH]cc3c2c1` [Example #286, 6-((8-methoxy-2H-pyrazolo[3,4-c]quinolin-4-yl)amino)-2-naphthoic acid]: in experiment [1], the Ki was 10 to 100 nM. The IC50 in experiment [2] is below 10 nM; in experiment [3] it was below 5000 nM.

As to `COc1ccc2nc(Nc3ccc(OCC(=O)O)cc3)c3n[nH]cc3c2c1` [Example #290, 2-(4-((8-methoxy-2H-pyrazolo[3,4-c]quinolin-4-yl)amino)phenoxy)acetic acid], the Ki in experiment [1] is 10 to 100 nM. Also, the values for the IC50 in experiment [2] and in experiment [3] were 100 to 1000 nM and below 5000 nM, respectively.

`COc1ccc2nc(Nc3ccc4c(c3)CN(C)C4)c3n[nH]cc3c2c1` [Example #294, 8-methoxy-N-(2-methylisoindolin-5-yl)-2H-pyrazolo[3,4-c]quinolin-4-amine]: in experiment [1], the Ki is 10 to 100 nM. Moreover, the IC50 in experiment [2] is 100 to 1000 nM; in experiment [3] it was below 5000 nM.

Take `O=C(O)c1cccc(Nc2nc3ccc(O)cc3c3c[nH]nc23)c1` [Example #296, 3-((8-hydroxy-2H-pyrazolo[3,4-c]quinolin-4-yl)amino)benzoic acid]: in experiment [1], the Ki was 100 to 1000 nM. Moreover, the IC50 in experiment [2] is 100 to 1000 nM; in experiment [3], below 5000 nM.

Turning to `COc1ccc2nc(Nc3ccc(C(=O)N(C)CCN(C)C)cc3)c3n[nH]cc3c2c1` [Example #300, N-(2-(dimethylamino)ethyl)-4-((8-methoxy-2H-pyrazolo[3,4-c]quinolin-4-yl)amino)-N-methylbenzamide], the Ki in experiment [1] is 10 to 100 nM. For the same compound, the IC50 in experiment [2] was 10 to 100 nM; in experiment [3], below 5000 nM.

As for `COCC1CCCN1C(=O)c1ccc(Nc2nc3ccc(OC)cc3c3c[nH]nc23)cc1` (stereo not drawn) [Example #301, (4-((8-methoxy-2H-pyrazolo[3,4-c]quinolin-4-yl)amino)phenyl)(2-(methoxymethyl)pyrrolidin-1-yl)methanone], the Ki in experiment [1] is 10 to 100 nM. Besides, the IC50 in experiment [2] is 10 to 100 nM; in experiment [3] it was below 5000 nM.

Turning to `COc1ccc2nc(Nc3ccc(C(=O)N(C)C)cc3)c3n[nH]cc3c2c1` [Example #303, 4-((8-methoxy-2H-pyrazolo[3,4-c]quinolin-4-yl)amino)-N,N-dimethylbenzamide], the Ki in experiment [1] is 100 to 1000 nM. Moreover, the IC50 in experiment [2] was 10 to 100 nM; in experiment [3], below 5000 nM.

In the case of `COc1ccc2nc(Nc3ccc4c(c3)CCCN4C)c3n[nH]cc3c2c1` [Example #308, 8-methoxy-N-(1-methyl-1,2,3,4-tetrahydroquinolin-6-yl)-2H-pyrazolo[3,4-c]quinolin-4-amine], the Ki in experiment [1] is 10 to 100 nM. In addition, the IC50 was 100 to 1000 nM in experiment [2] and below 5000 nM in experiment [3].

`COc1ccc2nc(Nc3cccc(S(C)(=O)=O)c3)c3n[nH]cc3c2c1` [Example #320, 8-methoxy-N-(3-(methylsulfonyl)phenyl)-2H-pyrazolo[3,4-c]quinolin-4-amine]: in experiment [1], the Ki is 100 to 1000 nM. For the same compound, the IC50 was 100 to 1000 nM in experiment [2] and below 5000 nM in experiment [3].

For the compound `CC(=O)N1CCN(c2ccc(Nc3nc4ccc(F)cc4c4cn[nH]c34)cc2)CC1` [Example #323, 1-(4-(4-((8-fluoro-3H-pyrazolo[3,4-c]quinolin-4-yl)amino)phenyl)piperazin-1-yl)ethan-1-one], the Ki in experiment [1] is 100 to 1000 nM. The values for the IC50 in experiment [2] and in experiment [3] were 100 to 1000 nM and below 5000 nM, respectively.

On to `O=C1COc2ccc(Nc3nc4ccc(F)cc4c4cn[nH]c34)cc2N1` [Example #324, 6-((8-fluoro-3H-pyrazolo[3,4-c]quinolin-4-yl)amino)-2H-benzo[b][1,4]oxazin-3(4H)-one], for which the Ki in experiment [1] is 10 to 100 nM. In addition, the IC50 is 100 to 1000 nM in experiment [2] and below 5000 nM in experiment [3].

On to `CN1CCN(c2ccc(Nc3nc4ccc(I)cc4c4cn[nH]c34)cc2)CC1` [Example #333, 8-iodo-N-(4-(4-methylpiperazin-1-yl)phenyl)-3H-pyrazolo[3,4-c]quinolin-4-amine], for which, in experiment [1], the Ki is below 10 nM. Also, the results for the IC50 in experiment [2] and in experiment [3] were 100 to 1000 nM and below 5000 nM, respectively.

`COc1cccc2nc(Nc3cccc(S(C)(=O)=O)c3)c3[nH]ncc3c12` [Example #338, 9-methoxy-N-(3-(methylsulfonyl)phenyl)-3H-pyrazolo[3,4-c]quinolin-4-amine]: the Ki in experiment [1] was 100 to 1000 nM. For the same compound, the results for the concentration for half-maximal inhibition (IC50) in experiment [2] and in experiment [3] were 100 to 1000 nM and below 5000 nM, respectively.

With `COc1cccc2nc(Nc3ccc4c(c3)NC(=O)CC4)c3[nH]ncc3c12` [Example #339, 7-((9-methoxy-3H-pyrazolo[3,4-c]quinolin-4-yl)amino)-3,4-dihydroquinolin-2(1H)-one], in experiment [1], the Ki is 10 to 100 nM. Also, the IC50 in experiment [2] is 10 to 100 nM; in experiment [3], below 5000 nM.

With `COc1cccc2nc(Nc3ccc(N4CCN(C(C)=O)CC4)cc3)c3[nH]ncc3c12` [Example #340, 1-(4-(4-((9-methoxy-3H-pyrazolo[3,4-c]quinolin-4-yl)amino)phenyl)piperazin-1-yl)ethan-1-one], the Ki in experiment [1] is 10 to 100 nM. Moreover, the IC50 is 10 to 100 nM in experiment [2] and below 5000 nM in experiment [3].

With `COc1ccc2nc(Nc3cccc([S+](C)[O-])c3)c3n[nH]cc3c2c1` (stereo not drawn) [Example #346, 8-methoxy-N-(3-(methylsulfinyl)phenyl)-2H-pyrazolo[3,4-c]quinolin-4-amine], the Ki in experiment [1] was 100 to 1000 nM. Also, the figures for the IC50 in experiment [2] and in experiment [3] were 100 to 1000 nM and below 5000 nM, respectively.

As to `CNS(=O)(=O)c1cccc(Nc2nc3ccc(OC)cc3c3c[nH]nc23)c1` [Example #348, 3-((8-methoxy-2H-pyrazolo[3,4-c]quinolin-4-yl)amino)-N-methylbenzenesulfonamide], in experiment [1], the Ki was 10 to 100 nM. In addition, the IC50 is 10 to 100 nM in experiment [2] and below 5000 nM in experiment [3].

As for `COc1cccc2nc(Nc3ccc(CN(C)C)cc3)c3[nH]ncc3c12` [Example #353, N-(4-((dimethylamino)methyl)phenyl)-9-methoxy-3H-pyrazolo[3,4-c]quinolin-4-amine], the Ki in experiment [1] is 10 to 100 nM. Also, the IC50 in experiment [2] was 10 to 100 nM; in experiment [3], below 5000 nM.
